The values below come from patent US6967095B2, “Human secretory type phospholipase A2” (Shionogi & Co., Ltd., priority 1998, dated 2005).

Experiment [1] concerns the target T1, IIA type secretory type PLA2 (Homo sapiens, UniProt P14555).
T1 sequence (P14555 21-144): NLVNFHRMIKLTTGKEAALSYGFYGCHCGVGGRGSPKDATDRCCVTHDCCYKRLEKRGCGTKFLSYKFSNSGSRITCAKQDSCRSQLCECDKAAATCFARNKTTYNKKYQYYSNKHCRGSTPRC
The note with it: already reported, Yokota et al., Biochim. Biophys. Acta (1999) 1438, 213-222; cited from earlier work.

The target in experiment [2] is IB type secretory type PLA2 (Homo sapiens, UniProt P04054). The note with it: already reported, Yokota et al., Biochim. Biophys. Acta (1999) 1438, 213-222; cited from earlier work.
The target of experiment [3] is T2, human PLA2 of this invention (IID type) (Homo sapiens, UniProt Q9UNK4).
T2 construct: made in house
T2 sequence (Q9UNK4 21-145): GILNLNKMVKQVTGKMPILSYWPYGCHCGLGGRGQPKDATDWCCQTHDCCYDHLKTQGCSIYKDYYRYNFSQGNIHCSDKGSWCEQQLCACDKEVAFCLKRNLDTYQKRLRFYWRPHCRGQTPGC
Put plainly: Inhibition of secretory PLA2 activity, release of 14C-oleic acid from 14C-POPC. The note with it: IID type from culture supernatant of CHO cells; 1 mM POPC, 3 mM deoxycholic acid, 2 mM CaCl2, pH 8.0, 40° C., 60 min; FIG. 4. In kind it is biochemical. As for the experimental part:
(§1) Inhibitory activity against this novel type of human secretory type PLA2 was determined with Indoxam that is a 1-oxamoylindolidine derivative. It has already been reported that Indoxam inhibits the enzymatic activities of IIA type and IB type secretory type PLA2 (Yokota et al., Biochim. Biophys. Acta (1999) 1438, 213-222). The PLA2 activities were determined by the measurement of the quantity of released ^14C-oleic acid from ^14C-labeled 1-palmitoyl-2-oleoyl-phosphatidylcholine (POPC), according to the Draheim et al.'s method (J. Med. Chem., (1996) 39, 5159-5175). In the solution composed of 50 mM Tris-HCl (pH 8.0), 200 mM NaCl, 2 mM CaCl2, and 1 mg/ml bovine serum albumin, the substrates composed of 1 mM POPC (the mixture of about 100,000 cpm ^-C-POPC and unlabeled POPC) and 3 mM deoxycholic acid were incubated with each secretory PLA2 in the presence of various concentrations of Indoxam at 40° C. for 60 min. Then, the quantity of released ^-C-oleic acid was measured. Purified materials were used in the case with human IB type (2 ng), IIA type (10 ng) and X type (4 ng). […]
(§2) The quantity of released ^14C-oleic acid from ^14C-POPC by each human secretory type PLA2 in the absence of Indoxam was regarded as 100% and the quantity of released ^14C-oleic acid in the presence of each concentration of Indoxam was shown as %.

For experiment [4], the target named is T3, human IIA type secretory PLA2 (Homo sapiens, UniProt P14555).
T3 sequence (P14555 21-144): T1 sequence (P14555 21-144)
The experiment is described as above. Format: biochemical. The note with it: purified human IIA type (10 ng); 1 mM POPC, 3 mM deoxycholic acid, 2 mM CaCl2, pH 8.0, 40° C., 60 min; FIG. 4. On the procedure: as §1, §2

IB type secretory type PLA2, sequence (P04054 23-148): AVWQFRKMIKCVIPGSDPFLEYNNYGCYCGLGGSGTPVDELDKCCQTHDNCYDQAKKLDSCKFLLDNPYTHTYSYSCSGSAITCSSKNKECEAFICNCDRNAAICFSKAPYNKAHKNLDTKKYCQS

In the case of `CCc1c(C(=O)C(N)=O)c2c(OCC(=O)O)cccn2c1Cc1ccccc1-c1ccccc1` [Indoxam], the “inhibition of enzymatic activity of IIA type secretory type PLA2” value in experiment [1] was “inhibits”. The “inhibition of enzymatic activity of IB type secretory type PLA2” value in experiment [2] is recorded as “inhibits”. Further, the “inhibition of enzymatic activity (released 14C-oleic acid as % of that without Indoxam)” value in experiment [3] and in experiment [4] was “strongly inhibits” each time.
